The nature of assay [1]: Luminescence Cell-Based Dose Confirmation HTS to Identify Inhibitors of Platelet Dense Granule Release. [Related pubchem assays: 1663 (Primary HTS), 1678 (Summary of Project)]. The class given is functional.
Assay [2] deals with Luciferin 4-monooxygenase (Photinus pyralis, UniProt P08659). Nature of the assay: inhibition of purified Photinus pyralis luciferase – biochemical, luminescence, dose response (AID 1891).
The target of assay [3] is T1, Zinc finger protein mex-5 (Caenorhabditis elegans, UniProt Q9XUB2).
T1 sequence (Q9XUB2 whole entry): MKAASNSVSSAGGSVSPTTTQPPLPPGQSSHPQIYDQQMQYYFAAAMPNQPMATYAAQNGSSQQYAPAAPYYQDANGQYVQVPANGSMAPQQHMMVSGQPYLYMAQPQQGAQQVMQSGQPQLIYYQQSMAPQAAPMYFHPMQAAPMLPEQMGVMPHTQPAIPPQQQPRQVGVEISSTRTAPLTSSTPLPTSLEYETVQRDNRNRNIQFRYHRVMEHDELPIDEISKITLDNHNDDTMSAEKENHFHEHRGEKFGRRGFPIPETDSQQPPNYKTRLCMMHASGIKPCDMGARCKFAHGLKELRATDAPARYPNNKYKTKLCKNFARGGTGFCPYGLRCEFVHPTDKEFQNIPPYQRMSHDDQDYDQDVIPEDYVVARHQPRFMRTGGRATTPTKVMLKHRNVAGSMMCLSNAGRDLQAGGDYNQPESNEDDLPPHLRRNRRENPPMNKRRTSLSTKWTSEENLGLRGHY
Nature of the assay: potency of MEX-5 RNA-binding blockers – biochemical, C. elegans, fluorescence polarization, dose response (AID 1960). On the technique in general: Fluorescence polarisation rises when a labelled molecule tumbles more slowly, as on binding a larger partner.

Assay [4] deals with T2, RNA-binding protein pos-1 (Caenorhabditis elegans, UniProt G5EF15).
T2 sequence (G5EF15 whole entry): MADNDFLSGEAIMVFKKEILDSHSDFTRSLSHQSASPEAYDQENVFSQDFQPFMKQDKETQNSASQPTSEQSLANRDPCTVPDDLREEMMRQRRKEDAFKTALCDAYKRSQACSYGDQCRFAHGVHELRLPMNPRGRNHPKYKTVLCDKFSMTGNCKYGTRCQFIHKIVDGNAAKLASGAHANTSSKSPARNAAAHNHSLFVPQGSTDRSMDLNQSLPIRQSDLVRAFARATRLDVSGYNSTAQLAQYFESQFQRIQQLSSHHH
Nature of the assay: disruptors of C. elegans POS-1 RNA interaction – biochemical, fluorescence polarization, dose response (AID 1964).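 Also: purified POS-1 fused to maltose binding protein made in E. coli; potency of compounds blocking POS-1 binding to fluorescent RNA.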

For assay [5], the target named is T3, Short transient receptor potential channel 4 (Mus musculus, UniProt Q9QUQ5).
T3 sequence (Q9QUQ5 whole entry): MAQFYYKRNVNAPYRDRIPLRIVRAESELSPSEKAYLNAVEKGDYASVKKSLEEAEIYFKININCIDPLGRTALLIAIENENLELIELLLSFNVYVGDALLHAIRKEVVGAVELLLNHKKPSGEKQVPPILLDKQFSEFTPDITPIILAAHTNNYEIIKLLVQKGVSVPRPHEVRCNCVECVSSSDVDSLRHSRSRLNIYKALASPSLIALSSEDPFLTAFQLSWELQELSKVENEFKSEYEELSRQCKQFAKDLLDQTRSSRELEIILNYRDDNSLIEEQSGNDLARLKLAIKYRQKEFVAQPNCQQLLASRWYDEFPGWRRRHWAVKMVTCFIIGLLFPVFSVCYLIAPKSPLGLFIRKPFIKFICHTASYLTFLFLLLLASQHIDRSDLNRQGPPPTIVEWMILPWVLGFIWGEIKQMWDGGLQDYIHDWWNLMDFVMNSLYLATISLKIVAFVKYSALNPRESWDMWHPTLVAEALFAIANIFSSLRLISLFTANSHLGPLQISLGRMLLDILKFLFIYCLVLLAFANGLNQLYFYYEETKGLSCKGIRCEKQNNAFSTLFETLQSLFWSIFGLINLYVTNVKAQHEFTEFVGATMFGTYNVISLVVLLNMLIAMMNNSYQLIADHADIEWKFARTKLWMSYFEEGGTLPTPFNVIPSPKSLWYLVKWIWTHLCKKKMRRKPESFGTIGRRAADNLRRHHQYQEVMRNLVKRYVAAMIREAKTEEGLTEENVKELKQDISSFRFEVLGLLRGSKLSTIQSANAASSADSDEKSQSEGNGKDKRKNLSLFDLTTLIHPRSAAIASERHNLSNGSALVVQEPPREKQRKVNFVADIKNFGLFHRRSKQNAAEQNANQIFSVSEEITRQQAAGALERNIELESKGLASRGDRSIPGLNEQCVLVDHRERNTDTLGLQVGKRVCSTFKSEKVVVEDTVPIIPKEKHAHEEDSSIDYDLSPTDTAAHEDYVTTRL
The assay is described as follows: block of DAMGO-driven TRPC4 calcium entry – cell-based, HEK293 TRPC4/mu-opioid, Fluo-4 calcium, dose response (AID 434942).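 Also: potency of inhibitors blocking the TRPC4 calcium response.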 In kind it is functional.

Another assay relates to H9c2. Nature of the assay: cells. In kind it is functional, cell-based. The settings on record: Rattus norvegicus, H9c2, Myocardium.
For another assay, the target named is Cytochrome P450 3A4 (Homo sapiens, UniProt P08684).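 Also: CYP3A4 tested as one member of a cytochrome P450 panel screen.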
In a further assay the target is Cytochrome P450 2C9 (Homo sapiens, UniProt P11712).
The nature of assay [6]: microbe, parasite or virus in culture. The class given is functional. The conditions noted are these: Mycobacterium tuberculosis.
Assay [7] in a line: viability of uninfected HEp-2 cells – cell-based, HTS, cytotoxicity control for RSV inhibitor project, dose response (AID 2410). The class given is functional. The conditions noted are these: human respiratory syncytial virus.
A short description of assay [8]: fluconazole-exposed Candida albicans growth modulators – fluorescence, retest, confirmation (AID 2467). In kind it is functional, cell-based.
The next assay has as its target Cytochrome P450 2D6 (Homo sapiens, UniProt P10635).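 Also: CYP2D6 member of a cytochrome P450 panel assay.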
A short description of assay [9]: NIH-3T3 fibroblast cytotoxicity, dose response, cytotoxicity control, cell-based, fluorescence, Alamar Blue, secondary assay (AID 2327).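 Also: NIH-3T3 mouse fibroblasts cultured with fluconazole at 8 µg/mL.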 The class given is functional.

Usually EC50 stands for the midpoint of the concentration-response curve. In general, IC50 refers to the midpoint of a concentration-inhibition curve. What is called AC50 is the concentration giving half of the maximal activity seen.

The source made the active and inactive calls. Where only a bound is given, the exact number is not on record here.
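For IC50 in this document: confirmatory concentration-response retest of ultra-high-throughput screening hits for modulation of myocardial damage; cell death induced by hydrogen peroxide oxidative stress; compound pretreatment for 60 min then peroxide exposure for 2 h; potency is for protecting the cells against peroxide damage rather than for killing them.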

Chain of Cytochrome P450 3A4 (P08684 whole entry): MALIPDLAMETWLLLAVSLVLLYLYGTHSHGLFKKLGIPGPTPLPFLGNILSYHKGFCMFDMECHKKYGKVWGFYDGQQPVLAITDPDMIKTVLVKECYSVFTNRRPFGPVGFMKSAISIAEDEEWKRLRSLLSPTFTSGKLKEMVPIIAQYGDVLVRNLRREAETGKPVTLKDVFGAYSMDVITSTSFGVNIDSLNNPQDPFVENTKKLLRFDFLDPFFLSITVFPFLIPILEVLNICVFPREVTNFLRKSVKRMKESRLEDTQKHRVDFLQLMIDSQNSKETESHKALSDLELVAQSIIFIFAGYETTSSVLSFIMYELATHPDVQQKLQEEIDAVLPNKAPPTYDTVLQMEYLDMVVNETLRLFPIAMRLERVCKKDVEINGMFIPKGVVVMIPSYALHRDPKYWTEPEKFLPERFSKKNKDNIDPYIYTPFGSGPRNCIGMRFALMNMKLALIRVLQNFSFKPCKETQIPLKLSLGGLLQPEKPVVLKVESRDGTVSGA
Chain of Luciferin 4-monooxygenase (P08659 whole entry): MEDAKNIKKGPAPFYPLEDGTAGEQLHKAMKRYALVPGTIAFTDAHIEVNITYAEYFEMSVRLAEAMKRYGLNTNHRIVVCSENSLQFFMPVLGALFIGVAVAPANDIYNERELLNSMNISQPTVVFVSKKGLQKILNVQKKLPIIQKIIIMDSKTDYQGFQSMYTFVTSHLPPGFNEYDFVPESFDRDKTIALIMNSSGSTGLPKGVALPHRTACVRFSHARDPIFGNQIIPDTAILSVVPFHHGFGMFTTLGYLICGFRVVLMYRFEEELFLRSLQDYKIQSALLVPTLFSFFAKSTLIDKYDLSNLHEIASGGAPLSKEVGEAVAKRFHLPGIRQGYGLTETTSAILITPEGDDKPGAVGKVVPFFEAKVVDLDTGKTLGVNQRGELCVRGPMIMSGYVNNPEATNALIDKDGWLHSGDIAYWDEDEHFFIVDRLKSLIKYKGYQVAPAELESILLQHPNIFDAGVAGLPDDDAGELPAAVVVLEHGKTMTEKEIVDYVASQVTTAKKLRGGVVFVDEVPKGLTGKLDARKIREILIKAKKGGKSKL
Chain of Cytochrome P450 2C9 (P11712 whole entry): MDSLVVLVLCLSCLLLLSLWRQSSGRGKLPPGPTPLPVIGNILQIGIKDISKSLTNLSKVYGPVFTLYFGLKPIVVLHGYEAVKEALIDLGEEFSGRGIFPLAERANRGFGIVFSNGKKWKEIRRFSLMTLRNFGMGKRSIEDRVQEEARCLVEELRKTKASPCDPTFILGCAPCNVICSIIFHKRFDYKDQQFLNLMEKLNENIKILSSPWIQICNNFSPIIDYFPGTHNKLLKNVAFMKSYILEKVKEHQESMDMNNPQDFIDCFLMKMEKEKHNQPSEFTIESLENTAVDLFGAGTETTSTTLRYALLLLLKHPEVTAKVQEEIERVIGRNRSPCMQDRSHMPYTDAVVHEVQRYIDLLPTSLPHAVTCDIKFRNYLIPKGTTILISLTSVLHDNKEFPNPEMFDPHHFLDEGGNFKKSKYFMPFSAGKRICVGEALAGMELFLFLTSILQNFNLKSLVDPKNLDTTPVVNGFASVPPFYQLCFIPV
Chain of Cytochrome P450 2D6 (P10635 whole entry): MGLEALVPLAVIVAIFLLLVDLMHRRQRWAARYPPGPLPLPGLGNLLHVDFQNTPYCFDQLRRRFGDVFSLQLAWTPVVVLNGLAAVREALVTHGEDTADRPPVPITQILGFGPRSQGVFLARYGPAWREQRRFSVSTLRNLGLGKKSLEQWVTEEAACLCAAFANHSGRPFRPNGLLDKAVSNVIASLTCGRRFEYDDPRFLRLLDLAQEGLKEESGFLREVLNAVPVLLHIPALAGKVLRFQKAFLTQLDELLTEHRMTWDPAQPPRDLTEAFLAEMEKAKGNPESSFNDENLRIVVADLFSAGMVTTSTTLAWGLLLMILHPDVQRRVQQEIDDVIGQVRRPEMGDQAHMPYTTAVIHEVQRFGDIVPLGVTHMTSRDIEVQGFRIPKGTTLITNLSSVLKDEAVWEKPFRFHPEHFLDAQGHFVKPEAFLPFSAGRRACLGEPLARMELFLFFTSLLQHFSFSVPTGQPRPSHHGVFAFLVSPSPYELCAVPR

Take `Cn1c2[n+](c3ccc(Cl)cc3c1=O)Cc1ccccc1-2`: the concentration for a half-maximal effect (EC50) in [1] and in assay [2] was > 112 µM (not active) each time.

With `COc1ccc(OC)c(NC(=O)CSc2nc(N)c(-c3ccccc3)c(O)n2)c1`, the half-maximal effective concentration (EC50) in [1] and in assay [2] was > 112 µM (not active) each time.

As for `O=C(O)c1ccccc1-n1c2ccccc2c2ccccc21`, the EC50 in assay [3] and in assay [4] was > 300 µM (not active) in each case.

Regarding `CN1CCCCc2c1nc1ccccc1c2N.O=C(O)c1cncc(Br)c1`, in [5], the EC50 was 0.668 µM (active).

For `C=CC[C@@H](CC(=O)N[C@H](CO)Cc1ccccc1)C(=O)N[C@@H](COC(=O)[C@@H](CC=C)CC(=O)OC(C)(C)C)Cc1ccccc1`, the IC50 in the assay on H9c2 was 12.1 µM (active).

Take `COc1cccc(Cn2c(=O)c(-c3cn(C)c4ccccc34)nc3cncnc32)c1`: the half-maximal activity concentration (AC50) was 10 µM (inconclusive) at Cytochrome P450 3A4 and 0.794 µM (inconclusive) at Cytochrome P450 2C9.

In the case of `CN(C)c1ccc(-c2nc(O)c3ccccc3n2)cc1`, the results for the 50% effective concentration (EC50) in [1] and in [2] were 33.4 µM (active) and 8.02 µM (active), respectively.

In the case of `O=C1N[C@H](Cc2c[nH]c3ccccc23)COC(=O)[C@H](Cc2ccc(F)cc2)C/C=C\C[C@H]1CC(=O)N(CCO)Cc1ccccc1`, the IC50 in the assay with H9c2 is > 79 µM (inactive).

As to `NC(=O)c1nsc(C(=O)N(Cc2ccco2)C(C(=O)NCc2ccc(F)cc2)c2ccc(O)cc2)c1N` (configuration not stated), the EC50 in assay [5] is 0.105 µM (active).

Regarding `Cc1ccc(NC(=O)c2[nH]cnc2C(=O)NCCCCCNC(=O)OC(C)(C)C)cc1`, the IC50 in the assay on H9c2 was > 79 µM (inactive).

As for `COc1ccc(C(C(=O)NC2CCCC2)N(C(=O)c2snc(C(N)=O)c2N)c2cccc(O)c2)cc1` (configuration not stated), the IC50 with H9c2 was > 79 µM (inactive).

Take `COc1cc(OC)c(C2C(C#N)=C(N)OC3=C2C(=O)CC(C)C3)cc1OC` (configuration not stated): the 50% effective concentration (EC50) in assay [3] and in [4] was > 300 µM (not active) in each case.

`Cc1cc2ccccc2nc1SCC(=O)N1c2ccccc2CC1C` (configuration not stated): the 50% effective concentration (EC50) in assay [1] was 11.9 µM (active); in assay [2], > 112 µM (not active).

On to `Cc1ccc(SCCNC(=O)c2ccccc2)cc1`, for which, on Cytochrome P450 3A4, the concentration at half-maximal activity (AC50) was 12.6 µM (inconclusive).

Turning to `C[C@@H]1OC2C3=C(C(=O)[C@H]4O[C@@H]4[C@H]3O)[C@@H]1[C@H]1[C@H](C)OC=C3[C@H](O)[C@H]4O[C@H]4/C(=N\OCc4ccccc4)[C@@]321`, the concentration at half-maximal activity (AC50) at Cytochrome P450 3A4 was 3.98 µM (inconclusive).

With `CCOc1cc(NC(=O)CCl)c(OCC)cc1NC(C)=O`, the CC50 in assay [6] is 25.5 µM (active).

With `CCOc1cc2[nH]c(=S)n(CCC(=O)NCc3ccco3)c(=O)c2cc1OCC`, the EC50 in assay [1] and in assay [2] was > 112 µM (not active) each time.

For the compound `Cc1cc(Cl)ccc1NNC(=O)CCc1ccccc1`, in [6], the CC50 is > 40 µM (active).

With `Cc1c(C2Nc3ccccc3C(=O)N2O)cnn1C` (configuration not stated), the IC50 in the assay on H9c2 is > 79 µM (inactive).

`Cc1ccc(Oc2ccccc2/C=N/O)cc1`: the EC50 in assay [5] was 9.44 µM (active).

Regarding `CC(=O)Nc1cccc(C(=O)NCC2(N3CCCCC3)CCCCC2)c1`, the concentration for a half-maximal effect (EC50) in assay [5] is 2.66 µM (active).

Consider `COc1ccccc1C(=O)Nc1ccc2c(c1)CCCN2C(=O)c1cccs1`, for which, in [7], the CC50 was 21.5 µM (active). The half-maximal effective concentration (EC50) in assay [5] was 3.35 µM (active).

As for `COc1ccc(COc2cc(-c3cccc(OC)c3)nc3ccc(NC(=O)c4ccc(OC)cc4)cc23)cc1`, the IC50 with H9c2 is > 79 µM (inactive). For the same compound, the CC50 in assay [6] was 15.8 µM (active).

In the case of `Cc1ccc2nc(O)c3cc(C(=O)N(C)c4ccc(C)c(C)c4)sc3c2c1`, the EC50 in [1] and in [2] was > 112 µM (not active) in each case.

Take `C/C(CC(=O)NCc1ccco1)=N\NC(=O)Cc1ccccc1`: at Cytochrome P450 3A4, the AC50 is 17.8 µM (inconclusive).

Regarding `COc1cc(C(=O)N/N=C/c2sc(N3CCOCC3)nc2-c2ccccc2)cc(OC)c1OC`, in the assay with H9c2, the half-inhibitory concentration (IC50) was 9.3 µM (active).

Consider `CCNc1ncc2nc(-c3cccs3)c(=O)n(C)c2n1`, for which the AC50 is 12.6 µM (inconclusive) on Cytochrome P450 3A4 and 10 µM (inconclusive) on Cytochrome P450 2C9.

As for `Cn1cc(CN2CCCCC2CO)c(-c2ccc(Oc3ccccc3)cc2)n1` (configuration not stated), the EC50 in assay [5] is 7.5 µM (active).

Take `CN(CC(=O)Nc1c(Cl)cccc1Cl)C(=O)Cn1[nH]c(=O)c2ccccc2c1=O`: the IC50 with H9c2 was > 79 µM (inactive).

For the compound `Cn1c(CN2CCCC2)nc2cc(NC(=O)COc3ccccc3)ccc21`, the 50% effective concentration (EC50) in assay [1] and in assay [2] was > 112 µM (not active) each time.

As to `Cc1cc(/C=C2\SC(Nc3ccc(F)cc3)=NC2=O)c(C)n1-c1ccc(S(N)(=O)=O)cc1`, in [6], the CC50 was 12 µM (active).

Consider `Cc1ccc(C(=O)c2oc3nc(C)cc(C)c3c2N)cc1`, for which the AC50 at Cytochrome P450 3A4 was 0.891 µM (inconclusive); at Cytochrome P450 2D6 it was 10 µM (inconclusive). The EC50 in assay [8] is > 38 µM (not active); in [9] it was > 160 µM (inactive).

In the case of `CCOc1cc(/C=C2\C(=O)N(Cc3ccc(C)cc3)C(C)=C2C(=O)OC)ccc1O`, the AC50 at Cytochrome P450 3A4 was 1 µM (inconclusive).

Consider `CCOCCCn1/c(=N/C(=O)c2cccs2)c(C#N)cc2c(=O)n3cccc(C)c3nc21`, for which the EC50 in assay [3] is on record as > 150 µM (not active); in assay [4], > 300 µM (not active).

With `Cc1nnc(SCC(=O)N/N=C/c2cn(-c3ccccc3)nc2-c2ccccc2)n1-c1ccccc1`, in the assay with H9c2, the IC50 is > 79 µM (inactive).

On to `Cc1n[nH]c(C)c1CCCCOc1ccccc1F`, for which, in [5], the EC50 was 3.76 µM (active).

Turning to `CN(C)c1ccc([N+](=O)[O-])cc1C(=O)NCC(c1ccco1)N(C)C` (configuration not stated), in assay [5], the 50% effective concentration (EC50) is 0.299 µM (active).

`NC(=O)N/N=C1\c2ccccc2-c2c(C(N)=O)cccc21`: the EC50 in assay [5] was 1.5 µM (active).

Turning to `CCOC(=O)c1[nH]c2cc(OC)c(OC)cc2c1NC(=O)c1nonc1C`, the half-maximal activity concentration (AC50) on Cytochrome P450 3A4 was 2.82 µM (inconclusive).

Regarding `CC(C)(C)N1C(=O)NC(=O)/C(=C/Nc2ccc3c(c2)CCC3)C1=O`, the CC50 in assay [6] is > 40 µM (active).

Regarding `Cc1ccc(C(=O)O)cc1-n1c(C)cc(C=O)c1C`, the EC50 in [3] and in assay [4] was > 300 µM (not active) in each case.

In the case of `C[C@@H](OC(=O)c1[nH]cnc1C(=O)NCc1ccc(CNC(=O)OC(C)(C)C)cc1)c1ccccc1`, the IC50 with H9c2 was > 79 µM (inactive).

With `CCOC(=O)C1CCN(CC(O)COc2ccc(C(C)(C)C)cc2)CC1` (configuration not stated), the EC50 in assay [5] was 1.88 µM (active).

As to `O=C(CCc1nc(O)c2ccccc2n1)N1CCN(S(=O)(=O)c2cc(Cl)ccc2Cl)CC1`, in the assay with H9c2, the IC50 was > 79 µM (inactive).
